The source of these data is patent US20070098788A1, “NON-BENZ[…] COMPOSITIONS” (priority 2005, published 2007).

For series [1] the following is noted: cited from earlier work.
Series [2] in a line: Particle size distribution by laser light scattering (Malvern). It counts as physicochemical. The note with it: zaleplon used in Example 15 capsules; method not stated.

A value given as a limit tells only on which side of the number the result lay.

`Cc1ccc(-c2nc3ccc(C)cn3c2CC(=O)N(C)C)cc1` [Zolpidem, N,N, 6-trimethyl-2-p-tolyl-imidazo[1,2-a]pyridine-3-acetamide]: in series [1] (in vivo), the elimination half-life is 2 to 3 h. Further, in series [1] (usually), the onset of action is no more than 15 min.

On to `CCN(C(C)=O)c1cccc(-c2ccnc3c(C#N)cnn23)c1` [Zaleplon, N-[3-(3-cyanopyrazolo[1,5-α]pyrimidin-7-yl)phenyl]-N-ethylacetamide], for which, in series [2], the D90 is 195 μm.
